Experimental data reported in ChEMBL document CHEMBL3046832, “Synthesis of some sulfonamides, disubstituted sulfonylureas or thioureas and some structurally related variants. A class of promising antitumor agents” (2007).

How the values were obtained:
Assay type in all cases: functional
[1] = system: DU-145; assay: Cytotoxicity against Homo sapiens (human) DU145 cells after 48 hr by SRB assay; settings: DU-145, 48 h
[2] = system: SF-268; assay: Cytotoxicity against Homo sapiens (human) SF268 cells after 48 hr by SRB assay; settings: SF-268, 48 h
[3] = system: COLO 205; assay: Cytotoxicity against Homo sapiens (human) COLO205 cells after 48 hr by SRB assay; settings: COLO 205, 48 h
[4] = system: MOLT-4; assay: Cytotoxicity against Homo sapiens (human) MOLT4 cells after 48 hr by SRB assay; settings: MOLT-4, 48 h
[5] = Cytotoxicity against Homo sapiens (human) CNS cancer cells after 48 hr by SRB assay; settings: Cancer cell lines
[6] = system: CCRF-CEM; assay: Cytotoxicity against Homo sapiens (human) CCRF-CEM cells after 48 hr by SRB assay
[7] = system: SNB-19; assay: Cytotoxicity against Homo sapiens (human) SNB19 cells after 48 hr by SRB assay; settings: SNB-19, 48 h
[8] = system: SK-MEL-5; assay: Cytotoxicity against Homo sapiens (human) SK-MEL-5 cells after 48 hr by SRB assay; settings: SK-MEL-5, 48 h
[9] = system: HCT-116; assay: Cytotoxicity against Homo sapiens (human) HCT116 cells after 48 hr by SRB assay; settings: HCT-116, 48 h
[10] = system: MDA-MB-435; assay: Cytotoxicity against Homo sapiens (human) MDA-MB-435 cells after 48 hr by SRB assay; settings: MDA-MB-435, 48 h
[11] = system: K562; assay: Cytotoxicity against Homo sapiens (human) K562 cells after 48 hr by SRB assay; settings: K562, 48 h
[12] = system: OVCAR-8; assay: Cytotoxicity against Homo sapiens (human) OVCAR8 cells after 48 hr by SRB assay; settings: OVCAR-8, 48 h
[13] = system: HOP-92; assay: Cytotoxicity against Homo sapiens (human) HOP92 cells after 48 hr by SRB assay; settings: HOP-92, 48 h
[14] = system: SK-MEL-28; assay: Cytotoxicity against Homo sapiens (human) SK-MEL-28 cells after 48 hr by SRB assay; settings: SK-MEL-28, 48 h
[15] = system: PC-3; assay: Cytotoxicity against Homo sapiens (human) PC3 cells after 48 hr by SRB assay; settings: PC-3, 48 h
[16] = system: ACHN; assay: Cytotoxicity against Homo sapiens (human) ACHN cells after 48 hr by SRB assay
[17] = Cytotoxicity against Homo sapiens (human) colon cancer cells after 48 hr by SRB assay; settings: Cancer cell lines
[18] = system: TK-10; assay: Cytotoxicity against Homo sapiens (human) TK10 cells after 48 hr by SRB assay; settings: TK-10, 48 h
[19] = system: LOX IMVI; assay: Cytotoxicity against Homo sapiens (human) LOXIMVI cells after 48 hr by SRB assay
[20] = system: NCI-H226; assay: Cytotoxicity against Homo sapiens (human) NCI-H226 cells after 48 hr by SRB assay; settings: NCI-H226, 48 h

SMILES | GI50 [1] | GI50 [2] | GI50 [3] | GI50 [4] | GI50 [5] | TGI [5] | GI50 [6] | GI50 [7] | GI50 [8] | GI50 [9] | GI50 [10] | GI50 [11] | GI50 [12] | GI50 [13] | GI50 [14] | GI50 [15] | GI50 [16] | GI50 [17] | TGI [17] | GI50 [19] | also measured
NS(=O)(=O)c1ccc(N2N=C3c4ccccc4CC3C2c2cccs2)cc1 (stereo not given) | 14.5 µM | > 100 µM | 58.9 µM | 18.9 µM | 36.4 µM | 70.3 µM | 31.8 µM | 34.4 µM | 18 µM | 10.7 µM | 19.3 µM | 57.5 µM | 15.3 µM | 25.8 µM | 75.6 µM | 22.1 µM | 19.8 µM | 28 µM | 74.5 µM | 19.1 µM | GI50 [18]: 13.2 µM
O=S(=O)(NC(=S)Nc1ccccc1)c1ccc(N2N=C3c4ccccc4CC3C2c2cccs2)cc1 (stereo not given) | 17.8 µM | 30.7 µM | 41.9 µM | 17.5 µM | 34 µM | 77.5 µM | 30.5 µM | 33.8 µM | 20.8 µM | 15.1 µM | 19.4 µM | 31.3 µM | 39 µM | 24.9 µM | 53.8 µM | 22.9 µM | 26.4 µM | 25.9 µM | 75.9 µM | 24.4 µM | GI50 [20]: 27.2 µM; GI50 [18]: 12.2 µM
O=C(NC(=S)NS(=O)(=O)c1ccc(N2N=C3c4ccccc4CC3C2c2cccs2)cc1)c1ccccc1 (stereo not given) | 28.3 µM | > 100 µM | 38.4 µM | 26.2 µM | 53.3 µM | 90.9 µM | 27.9 µM | 46.3 µM | 16.9 µM |  | 21.7 µM |  | 20.3 µM | 53 µM | 84 µM | 29.7 µM | > 100 µM | 35.5 µM | 85.6 µM | 15.2 µM | 
O=C1CS/C(=N\S(=O)(=O)c2ccc(N3N=C4c5ccccc5CC4C3c3cccs3)cc2)N1C(=O)c1ccccc1 (stereo not given) | 38.2 µM | > 100 µM | 51 µM | 22.2 µM | 64.9 µM | > 100 µM | 37.5 µM | 77 µM | 22.7 µM | 22 µM | 37.4 µM |  | 45.7 µM | 37.3 µM | > 100 µM | 38.1 µM | 23.6 µM | 40.4 µM | 79.8 µM | 22.7 µM | GI50 [20]: 58.5 µM; GI50 [18]: 49.6 µM
O=S(=O)(/N=c1\scc(-c2ccccc2)n1-c1ccccc1)c1ccc(N2N=C3c4ccccc4CC3C2c2cccs2)cc1 (stereo not given) | > 100 µM | > 100 µM | > 100 µM | 19 µM | 80.9 µM | > 100 µM | 50.3 µM | > 100 µM | 48 µM |  | 38.7 µM | > 100 µM | 47.2 µM | > 100 µM | > 100 µM | 75 µM | 42.5 µM | 68.1 µM | 96.9 µM | 32.4 µM | GI50 [20]: 78.9 µM; GI50 [18]: 32.7 µM
O=C(c1ccccc1)n1c(-c2ccccc2)cs/c1=N\S(=O)(=O)c1ccc(N2N=C3c4ccccc4CC3C2c2cccs2)cc1 (stereo not given) | 47 µM | > 100 µM | 98.1 µM | 30.5 µM | 64.5 µM | > 100 µM | 41.3 µM | 59.2 µM | 24.4 µM | 30.5 µM | 31.1 µM | 27.6 µM | 42.9 µM | > 100 µM | > 100 µM | 39.2 µM | 43.8 µM | 53.3 µM | 90.4 µM | 30.7 µM | GI50 [20]: 30.1 µM; GI50 [18]: 30.5 µM
O=C1CCS/C(=N\S(=O)(=O)c2ccc(N3N=C4c5ccccc5CC4C3c3cccs3)cc2)N1c1ccccc1 (stereo not given) | > 100 µM | > 100 µM | 36.8 µM | 47 µM | 34.1 µM | 54.1 µM | 28 µM | 22.3 µM | 14.1 µM | 20.3 µM | 38.7 µM | > 100 µM | 19.2 µM | 35.9 µM | 42.1 µM | 75 µM | 42.5 µM | 24.1 µM | 60.7 µM | 13.6 µM | GI50 [20]: 26.5 µM; GI50 [18]: 32.7 µM
O=C1CCS/C(=N\S(=O)(=O)c2ccc(N3N=C4c5ccccc5CC4C3c3cccs3)cc2)N1C(=O)c1ccccc1 (stereo not given) | 23.2 µM | 13.7 µM | 66.5 µM | 50.4 µM | 36.7 µM | 68.2 µM | 15 µM | 45.7 µM | 2.56 µM | 10 µM | 22.7 µM | 26.4 µM | 0.81 µM | 25.4 µM | 50.2 µM | 29.2 µM | 5.18 µM | 27.4 µM | 52.6 µM | 7.61 µM | GI50 [20]: 15.9 µM; GI50 [18]: 24.5 µM
O=C1CS/C(=N\S(=O)(=O)c2ccc(N3N=C4c5ccccc5CC4C3c3cccs3)cc2)N(c2ccccc2)C1 (stereo not given) | 30.7 µM | > 100 µM | 57.2 µM | 0.01 µM | 57.4 µM | 99.7 µM | 36.8 µM | 55.7 µM | 38.2 µM | 12.5 µM | 29.5 µM | 10.3 µM | 25.4 µM | 79.9 µM | > 100 µM | 45 µM | 22.1 µM | 37.2 µM | 66.3 µM | 21.2 µM | GI50 [20]: 22.3 µM
